Structures are written as SMILES. pIC50: −log10 of the molar value. Converted amounts (≈) assume the structure as drawn.

Series [1] concerns the target T1, liver carboxylesterase (CES) (Sus scrofa, UniProt Q29550).
T1 sequence (Q29550 whole entry): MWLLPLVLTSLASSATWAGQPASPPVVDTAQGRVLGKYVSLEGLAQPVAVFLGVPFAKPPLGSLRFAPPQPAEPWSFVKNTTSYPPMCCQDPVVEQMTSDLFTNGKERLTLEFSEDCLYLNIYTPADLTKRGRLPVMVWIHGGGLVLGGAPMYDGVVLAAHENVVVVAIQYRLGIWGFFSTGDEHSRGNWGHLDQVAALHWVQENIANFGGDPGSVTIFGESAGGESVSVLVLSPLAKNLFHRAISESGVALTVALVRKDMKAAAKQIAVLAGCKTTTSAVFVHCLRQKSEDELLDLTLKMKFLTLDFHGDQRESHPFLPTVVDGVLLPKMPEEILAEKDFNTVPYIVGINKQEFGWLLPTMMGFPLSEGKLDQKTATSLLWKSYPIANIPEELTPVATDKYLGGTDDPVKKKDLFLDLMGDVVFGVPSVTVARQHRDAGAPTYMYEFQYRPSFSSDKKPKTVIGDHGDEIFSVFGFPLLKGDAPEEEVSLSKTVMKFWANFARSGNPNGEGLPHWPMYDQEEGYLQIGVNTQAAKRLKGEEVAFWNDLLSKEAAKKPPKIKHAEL
The series can be described thus: Inhibition of pig liver CES at 20 uM relative to control. Type of series: tissue-based.

Series [2] in a line: Antioxidant activity assessed as ABTS radical scavenging activity. The format is functional.
Series [3] deals with Rattus norvegicus. Briefly: Analgesic activity in Sprague-Dawley rat at 15 mg/kg after 2 hrs by hot plate test. Type of series: functional. Background: Thermal pain tests record how soon the animal reacts.
A further series addresses T2, Androgen receptor (Homo sapiens, UniProt P10275).
T2 sequence (P10275 whole entry): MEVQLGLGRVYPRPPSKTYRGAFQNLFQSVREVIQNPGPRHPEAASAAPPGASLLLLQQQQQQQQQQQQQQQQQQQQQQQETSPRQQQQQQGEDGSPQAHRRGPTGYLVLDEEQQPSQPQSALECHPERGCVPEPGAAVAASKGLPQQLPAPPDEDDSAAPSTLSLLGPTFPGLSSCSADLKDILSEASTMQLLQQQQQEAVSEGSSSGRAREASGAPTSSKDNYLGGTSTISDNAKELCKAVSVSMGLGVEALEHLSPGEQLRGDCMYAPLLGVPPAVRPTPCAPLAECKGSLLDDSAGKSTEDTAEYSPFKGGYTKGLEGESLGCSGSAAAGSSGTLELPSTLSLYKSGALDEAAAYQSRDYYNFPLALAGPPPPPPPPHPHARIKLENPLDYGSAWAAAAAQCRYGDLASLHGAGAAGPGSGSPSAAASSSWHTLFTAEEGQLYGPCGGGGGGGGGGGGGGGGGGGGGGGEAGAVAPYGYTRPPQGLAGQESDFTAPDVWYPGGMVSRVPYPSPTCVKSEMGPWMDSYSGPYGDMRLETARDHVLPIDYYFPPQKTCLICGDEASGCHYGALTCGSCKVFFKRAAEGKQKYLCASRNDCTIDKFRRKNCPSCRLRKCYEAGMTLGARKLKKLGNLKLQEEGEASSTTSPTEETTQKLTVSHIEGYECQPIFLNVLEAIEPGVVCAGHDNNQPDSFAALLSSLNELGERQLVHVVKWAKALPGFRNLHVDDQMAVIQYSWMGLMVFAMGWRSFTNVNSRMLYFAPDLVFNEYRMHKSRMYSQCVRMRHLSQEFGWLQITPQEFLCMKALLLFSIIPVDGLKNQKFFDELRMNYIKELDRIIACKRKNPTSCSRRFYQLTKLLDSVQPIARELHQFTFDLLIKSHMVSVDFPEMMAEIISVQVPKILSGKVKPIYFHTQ
The series can be described thus: Antagonist activity at androgen receptor (unknown origin).

For series [4], the system named is MCF7. Briefly: Cytotoxicity against human MCF7 cells by SRB assay. The format is functional, cell-based. For orientation: Sulforhodamine B stains cellular protein and so reports cell mass.
In series [5] the target is T3, Prostaglandin G/H synthase 1 (Ovis aries, UniProt P05979).
T3 sequence (P05979 whole entry): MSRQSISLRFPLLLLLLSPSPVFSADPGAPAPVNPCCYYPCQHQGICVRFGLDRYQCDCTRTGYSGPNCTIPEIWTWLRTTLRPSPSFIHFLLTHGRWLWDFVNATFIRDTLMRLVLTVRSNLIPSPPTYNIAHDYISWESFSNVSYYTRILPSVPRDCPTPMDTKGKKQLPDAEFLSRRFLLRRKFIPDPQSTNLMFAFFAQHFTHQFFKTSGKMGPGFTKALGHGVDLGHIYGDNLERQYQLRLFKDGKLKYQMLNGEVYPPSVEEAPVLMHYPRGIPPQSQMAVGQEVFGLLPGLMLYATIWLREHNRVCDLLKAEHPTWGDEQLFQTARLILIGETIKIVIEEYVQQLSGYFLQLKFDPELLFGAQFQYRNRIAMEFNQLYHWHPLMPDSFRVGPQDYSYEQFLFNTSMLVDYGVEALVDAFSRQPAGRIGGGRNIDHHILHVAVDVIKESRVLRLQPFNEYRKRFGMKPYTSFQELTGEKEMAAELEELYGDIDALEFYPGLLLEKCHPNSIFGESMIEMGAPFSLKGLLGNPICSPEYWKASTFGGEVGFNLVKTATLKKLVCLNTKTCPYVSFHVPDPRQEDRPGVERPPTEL
Briefly: Inhibition of ovine COX-1.

Series [6] can be described thus: Inhibition of soybean 15-LOX. Set-up: species or system Glycine max.
Series [7] concerns Rattus norvegicus. The series can be described thus: Antiinflammatory activity in rat assessed as inhibition of carrageenan induced paw edema at 50 mg/kg. Type of series: functional. Set-up: scale not given: the % may be the effect or the level left.
The next series concerns Mus musculus. The series can be described thus: Antiinflammatory activity in mouse assessed as inhibition of paw edema after 24 hrs. The format is functional. Set-up: scale not given: the % may be the effect or the level left.
Another series concerns CHO-K1. Briefly: Cytotoxicity against CHO-K1 cells by MTT assay. Type of series: toxicity, cell-based, Cricetulus griseus. Set-up: concentration or dose not given beside the values. The following applies: chinese hamster. In general terms: Formazan colour is commonly taken as a measure of viable cells.
The next series relates to Pseudomonas aeruginosa. Briefly: Antibacterial activity against Pseudomonas aeruginosa assessed as zone of inhibition. Type of series: functional.
For the next series, the system named is HepG2. Briefly: Cytotoxicity against human HepG2 cells by MTT assay. The format is functional, cell-based.
Series [8] concerns MCF7. Briefly: Cytotoxicity against human MCF7 cells by MTT assay. The format is functional, cell-based.
The subject of the next series is Staphylococcus aureus. Briefly: Antibacterial activity against Staphylococcus aureus assessed as zone of inhibition. Type of series: functional.
The next series concerns Escherichia coli. The series can be described thus: Antibacterial activity against Escherichia coli assessed as zone of inhibition. The format is functional.
For the next series, the system named is Bacillus subtilis. Briefly: Antibacterial activity against Bacillus subtilis assessed as zone of inhibition. The format is functional.
A further series deals with Salmonella enterica. Briefly: Antibacterial activity against Salmonella enterica assessed as zone of inhibition. The format is functional.
Another series concerns Candida albicans. The series can be described thus: Antifungal activity against Candida albicans. The format is functional.
In series [9] the test system is Aspergillus niger. The series can be described thus: Antifungal activity against Aspergillus niger assessed as zone of inhibition. Type of series: functional.
The subject of the next series is Salmonella typhimurium. Briefly: Antibacterial activity against Salmonella typhimurium assessed as zone of inhibition. Type of series: functional, Salmonella enterica subsp. enterica serovar Typhimurium.
A short description of series [10]: Inhibition of Hepatitis C virus NS3 protease. Type of series: functional, Hepacivirus hominis.
The subject of series [11] is Aspergillus niger. The series can be described thus: Antifungal activity against Aspergillus niger. Type of series: functional.
Another series concerns Aspergillus clavatus. Briefly: Antifungal activity against Aspergillus clavatus. The format is functional.

Turning to `Cc1ccc(N/N=C2\C(=O)n3nc(-c4ccccc4)cc3N=C2C(F)(F)F)cc1`, in [1], the inhibition – broadly, the relative decrease from the control value, in per cent – at 20 µM came out at 2.91%. Besides, the Activity in series [2] is 0.19 µM; in the series on Rattus norvegicus [3], 47.4%.
On to `CC1(C2CC(C(F)(F)F)n3nc(C(=O)O)cc3N2)CC1` (configuration not stated), for which, at Androgen receptor, the pIC50 – broadly, the negative decadic logarithm of the IC50, by convention in mol/L – is 3.67.
Take `O=C(C1=CN=C2CC(O)=NN2C1P(=O)(OCCCl)OCCCl)c1ccccc1O` (configuration not stated): the IC50 (as a rule, the midpoint of a concentration-inhibition curve) with MCF7 [4] came to 39.7 µg/mL.
As to `CCOc1cc(N)n2nc(Nc3cc(OC)ccn3)c(C#N)c2n1`, the pIC50 was 5.07 in series [5] and 5.09 in series [6]. Moreover, in the series on Rattus norvegicus [7], the Activity is given as 46%.
In the case of `COc1ccc(-c2cnc3c(C(=O)Nc4c(C)n(C)n(-c5ccccc5)c4=O)cnn3c2N)cc1`, the figures for the Activity in the series with Mus musculus and in the series on CHO-K1 were 25% and 72.96%, respectively.
Turning to `COc1ccc(-c2ccnc3c(C(N)=O)c(Nc4ccccc4)nn23)cc1`, in the series with Pseudomonas aeruginosa, the “inhibition zone (IZ)” value was determined as 9 mm. In addition, the pIC50 was 4.20 in the series with MCF7 [4], 4.10 in the series on HepG2 and 4.20 in the series on MCF7 [8].
Turning to `CC1(C)S[C@@H]2[C@H](NC(=O)[C@H](N)c3ccccc3)C(=O)N2[C@H]1C(=O)O` [AMPICILLIN], the “inhibition zone (IZ)” value stood at 21 mm in the series with Staphylococcus aureus, 25 mm with Escherichia coli, 26 mm in the series with Bacillus subtilis and 23 mm in the series with Salmonella enterica.
As to `NC(=O)c1c(Nc2ccccc2)nn2c(-c3ccccc3)cc(-c3ccccc3)nc12`, in the series with Candida albicans, the lowest concentration to inhibit growth (MIC) was 15.6 µg/mL (≈ 38.5 µM).
As to `Nc1nn2c(-c3ccc(S(=O)(=O)c4ccccc4)cc3)ccnc2c1/N=N/c1cccc(Cl)c1`, the “inhibition zone (IZ)” value stood at 23.4 mm with Staphylococcus aureus, 25.1 mm with Aspergillus niger [9] and 26.3 mm with Salmonella typhimurium.
With `COc1ccc(Nc2nn3c(N)c(C#N)c(-c4ccc(F)cc4)nc3c2C(N)=O)cc1`, the MIC (commonly the lowest concentration found to suppress growth) against Candida albicans was determined as 15.6 µg/mL (≈ 37.4 µM).
Regarding `COC(=O)c1cnc2c(C(=O)Nc3c(C)n(C)n(-c4ccccc4)c3=O)cnn2c1C`, the Activity in the series with CHO-K1 amounted to 49.24%.
Compound `CC/C(=C(\c1ccccc1)c1ccc(OCCN(C)C)cc1)c1ccccc1` [TAMOXIFEN] showed an IC50 with MCF7 [4] of 8.5 µg/mL.
On the same count and under the same terms, with `CCOP(=O)(OCC)C1C(C(=O)c2ccccc2O)=CN=C2CC(O)=NN21` (configuration not stated) the figure was 21.9 µg/mL.
Take `N#C/C(=C/c1ccc(Cl)cc1)c1nn2c(-c3cccs3)cc(C(F)(F)F)nc2c1C#N`: in series [10], the IC50 came to 7.33 µg/mL (≈ 16.1 µM).
Compound `O=C(O)c1nn2c(c1Cl)NC(c1ccccc1)CC2C(F)(F)F` (configuration not stated) showed a pIC50 against Androgen receptor of 3.31.
As to `Cc1ccc(-n2cnc3c(cnn3-c3cc(C)nc4c(C#N)cnn34)c2=O)cc1`, the entries for the “inhibition zone (IZ)” value in the series on Escherichia coli and in the series with Bacillus subtilis were 12.2 mm and 14 mm, respectively. For the same compound, the MIC in the series on Aspergillus niger [11] and against Aspergillus clavatus was 10 µg/mL (≈ 26.2 µM) each time.

These data come from ChEMBL document CHEMBL5241120, “Insights into the medicinal chemistry of heterocycles integrated with a pyrazolo[1,5-a]pyrimidine scaffold” (RSC Med Chem, 2022).
